# In PubChem BioAssay (NCI):
#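 Method: 48-hour compound exposure of cells in 96-well plates, five concentrations, linear interpolation of endpoints. TGI marks complete inhibition of growth.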
# What was measured:
# Experiment in all cases: inhibition of tumour cell growth, NCI panel, 48 h
# 786-0 renal = system: 786-0 renal
# A498 renal = system: A498 renal
# A549 NSCLC = system: A549 NSCLC
# ACHN renal = system: ACHN renal
# CAKI-1 renal = system: CAKI-1 renal
# CCRF-CEM leukemia = system: CCRF-CEM leukemia
# COLO 205 colon = system: COLO 205 colon
# DLD-1 colon = system: DLD-1 colon
# DMS 114 small cell lung = system: DMS 114 small cell lung
# DMS 273 small cell lung = system: DMS 273 small cell lung
# EKVX NSCLC = system: EKVX NSCLC
# HCC-2998 colon = system: HCC-2998 colon
# HCT-116 colon = system: HCT-116 colon
# HCT-15 colon = system: HCT-15 colon
# HL-60(TB) leukemia = system: HL-60(TB) leukemia
# HOP-18 NSCLC = system: HOP-18 NSCLC
# HOP-62 NSCLC = system: HOP-62 NSCLC
# HOP-92 NSCLC = system: HOP-92 NSCLC
# HT29 colon = system: HT29 colon
# IGROV1 ovarian = system: IGROV1 ovarian
# K-562 leukemia = system: K-562 leukemia
# KM12 colon = system: KM12 colon
# KM20L2 colon = system: KM20L2 colon
# LOX IMVI melanoma = system: LOX IMVI melanoma
# LXFL 529 NSCLC = system: LXFL 529 NSCLC
# M14 melanoma = system: M14 melanoma
# M19-MEL melanoma = system: M19-MEL melanoma
# MALME-3M melanoma = system: MALME-3M melanoma
# MOLT-4 leukemia = system: MOLT-4 leukemia
# NCI-H226 lung = system: NCI-H226 lung
# NCI-H23 lung = system: NCI-H23 lung
# NCI-H460 lung = system: NCI-H460 lung
# NCI-H522 lung = system: NCI-H522 lung
# OVCAR-3 ovarian = system: OVCAR-3 ovarian
# OVCAR-4 ovarian = system: OVCAR-4 ovarian
# OVCAR-5 ovarian = system: OVCAR-5 ovarian
# RPMI-8226 leukemia = system: RPMI-8226 leukemia
# RXF 393 renal = system: RXF 393 renal
# RXF-631 renal = system: RXF-631 renal
# SF-268 CNS = system: SF-268 CNS
# SF-295 CNS = system: SF-295 CNS
# SF-539 CNS = system: SF-539 CNS
# SK-MEL-2 melanoma = system: SK-MEL-2 melanoma
# SK-MEL-28 melanoma = system: SK-MEL-28 melanoma
# SK-MEL-5 melanoma = system: SK-MEL-5 melanoma
# SK-OV-3 ovarian = system: SK-OV-3 ovarian
# SN12C renal = system: SN12C renal
# SNB-19 CNS = system: SNB-19 CNS
# SNB-75 CNS = system: SNB-75 CNS
# SNB-78 CNS = system: SNB-78 CNS
# SR leukemia = system: SR leukemia
# SW-620 colon = system: SW-620 colon
# TK-10 renal = system: TK-10 renal
# U251 CNS = system: U251 CNS
# UACC-257 melanoma = system: UACC-257 melanoma
# UACC-62 melanoma = system: UACC-62 melanoma
# UO-31 renal = system: UO-31 renal
# OVCAR-8 ovarian = system: OVCAR-8 ovarian
# XF 498 CNS = system: XF 498 CNS
structure (smiles),measurement,setting,value
COc1ccc(NC(=O)CC/C(CC(=O)C(C)(C)C)=N\NC(=O)C(=O)NN)cc1,TGI,786-0 renal,> 100 µM
same,TGI,A498 renal,> 100 µM
same,TGI,A549 NSCLC,> 100 µM
same,TGI,ACHN renal,> 100 µM
same,TGI,CAKI-1 renal,> 100 µM
same,TGI,CCRF-CEM leukemia,> 100 µM
same,TGI,COLO 205 colon,> 100 µM
same,TGI,DLD-1 colon,> 100 µM
same,TGI,DMS 114 small cell lung,> 100 µM
same,TGI,DMS 273 small cell lung,> 100 µM
same,TGI,EKVX NSCLC,> 100 µM
same,TGI,HCC-2998 colon,> 100 µM
same,TGI,HCT-116 colon,> 100 µM
same,TGI,HCT-15 colon,> 100 µM
same,TGI,HL-60(TB) leukemia,> 100 µM
same,TGI,HOP-18 NSCLC,> 100 µM
same,TGI,HOP-62 NSCLC,> 100 µM
same,TGI,HOP-92 NSCLC,> 100 µM
same,TGI,HT29 colon,> 100 µM
same,TGI,IGROV1 ovarian,> 100 µM
same,TGI,K-562 leukemia,> 100 µM
same,TGI,KM12 colon,> 100 µM
same,TGI,KM20L2 colon,> 100 µM
same,TGI,LOX IMVI melanoma,> 100 µM
same,TGI,LXFL 529 NSCLC,> 100 µM
same,TGI,M14 melanoma,> 100 µM
same,TGI,M19-MEL melanoma,> 100 µM
same,TGI,MALME-3M melanoma,> 100 µM
same,TGI,MOLT-4 leukemia,> 100 µM
same,TGI,NCI-H226 lung,> 100 µM
same,TGI,NCI-H23 lung,> 100 µM
same,TGI,NCI-H460 lung,> 100 µM
same,TGI,NCI-H522 lung,> 100 µM
same,TGI,OVCAR-3 ovarian,> 100 µM
same,TGI,OVCAR-4 ovarian,> 100 µM
same,TGI,OVCAR-5 ovarian,> 100 µM
same,TGI,RPMI-8226 leukemia,> 100 µM
same,TGI,RXF 393 renal,> 100 µM
same,TGI,RXF-631 renal,> 100 µM
same,TGI,SF-268 CNS,> 100 µM
same,TGI,SF-295 CNS,> 100 µM
same,TGI,SF-539 CNS,> 100 µM
same,TGI,SK-MEL-2 melanoma,> 100 µM
same,TGI,SK-MEL-28 melanoma,> 100 µM
same,TGI,SK-MEL-5 melanoma,> 100 µM
same,TGI,SK-OV-3 ovarian,> 100 µM
same,TGI,SN12C renal,> 100 µM
same,TGI,SNB-19 CNS,> 100 µM
same,TGI,SNB-75 CNS,> 100 µM
same,TGI,SNB-78 CNS,> 100 µM
same,TGI,SR leukemia,> 100 µM
same,TGI,SW-620 colon,> 100 µM
same,TGI,TK-10 renal,> 100 µM
same,TGI,U251 CNS,> 100 µM
same,TGI,UACC-257 melanoma,> 100 µM
same,TGI,UACC-62 melanoma,> 100 µM
same,TGI,UO-31 renal,> 100 µM
O=C1O[C@H](c2ccccc2)[C@@H]2CC3(CCN12)OCCO3,TGI,786-0 renal,> 100 µM
same,TGI,A498 renal,> 100 µM
same,TGI,A549 NSCLC,> 100 µM
same,TGI,ACHN renal,> 100 µM
same,TGI,CAKI-1 renal,> 100 µM
same,TGI,CCRF-CEM leukemia,> 100 µM
same,TGI,COLO 205 colon,> 100 µM
same,TGI,DMS 273 small cell lung,> 100 µM
same,TGI,EKVX NSCLC,> 100 µM
same,TGI,HCT-116 colon,> 100 µM
same,TGI,HCT-15 colon,> 100 µM
same,TGI,HL-60(TB) leukemia,> 100 µM
same,TGI,HOP-62 NSCLC,> 100 µM
same,TGI,HOP-92 NSCLC,> 100 µM
same,TGI,HT29 colon,> 100 µM
same,TGI,IGROV1 ovarian,> 100 µM
same,TGI,K-562 leukemia,> 100 µM
same,TGI,KM12 colon,> 100 µM
same,TGI,KM20L2 colon,> 100 µM
same,TGI,LOX IMVI melanoma,> 100 µM
same,TGI,LXFL 529 NSCLC,> 100 µM
same,TGI,M14 melanoma,> 100 µM
same,TGI,MOLT-4 leukemia,> 100 µM
same,TGI,NCI-H226 lung,> 100 µM
same,TGI,NCI-H23 lung,> 100 µM
same,TGI,NCI-H460 lung,> 100 µM
same,TGI,NCI-H522 lung,7.48 µM
same,TGI,OVCAR-3 ovarian,> 100 µM
same,TGI,OVCAR-4 ovarian,> 100 µM
same,TGI,OVCAR-5 ovarian,> 100 µM
same,TGI,OVCAR-8 ovarian,> 100 µM
same,TGI,RPMI-8226 leukemia,> 100 µM
same,TGI,RXF 393 renal,> 100 µM
same,TGI,RXF-631 renal,> 100 µM
same,TGI,SF-268 CNS,> 100 µM
same,TGI,SF-295 CNS,> 100 µM
same,TGI,SF-539 CNS,> 100 µM
same,TGI,SK-MEL-2 melanoma,> 100 µM
same,TGI,SK-MEL-28 melanoma,> 100 µM
same,TGI,SK-MEL-5 melanoma,> 100 µM
same,TGI,SN12C renal,> 100 µM
same,TGI,SNB-19 CNS,> 100 µM
same,TGI,SR leukemia,> 100 µM
same,TGI,SW-620 colon,> 100 µM
same,TGI,TK-10 renal,> 100 µM
same,TGI,U251 CNS,> 100 µM
same,TGI,UACC-257 melanoma,> 100 µM
same,TGI,UACC-62 melanoma,> 100 µM
same,TGI,UO-31 renal,> 100 µM
same,TGI,XF 498 CNS,> 100 µM
